Data taken from PubChem BioAssay AID1963967 (Molecular Pharmacology Branch, DTP, NCI, 2024).
pIC50: −log10 of the molar value.

System: 855422-203-R-J1-PDC spheroids with HUVEC/MSC, viability
Assay: Anticancer human tumor 855422-203-R-J1-PDC patient-derived bladder carcinoma cell line growth inhibition [PI3K]
Settings: for pIC50: curve of first compound; for viability, T/C: stronger effect = lower value
Source text: Combinatorial screen of targeted agents with the PI3K inhibitors inavolisib, alpelisib, duvelisib, and copanlisib in multi-cell type tumor spheroids
A high-throughput screen of multi-cell type tumor spheroids was designed to identify active combinations of targeted small molecules and PI3K pathway inhibitors. Complex spheroids include a stromal component modeled by human endothelial cells (HUVEC) and fibroblasts modeled by human mesenchymal stem cells (MSCs). The concentration ranges selected for each drug and investigational agent were based upon clinically achievable concentrations if the clinical Cmax of the agent was known.
Compounds. The drugs and investigational agents: inavolisib (NSC800729), alpelisib (NSC765974), duvelisib (NSC772469), copanlisib (NSC816437), ipatasertib (NSC767898), afuresertib (NSC778305), talazoparib (NSC767125), sapanisertib (NSC764658), selumetinib (NSC741078), tovorafenib (DAY101, NSC766906), vemurafenib (NSC761431), ravoxertinib (NSC781343), sotorasib (NSC818433), MRTX1133 (NSC 836407), abemaciclib (NSC 768073), palbociclib (NSC758247), venetoclax (NSC 766270), SY5609 (NSC837396), enzalutamide (NSC755605), and darolutamide (NSC825331), were obtained from the National Cancer Institute (NCI) Developmental Therapeutics Program Chemical Repository. The FDA-approved anticancer drug set is available from the NCI Developmental Therapeutics Program. […] The stock solutions were prepared in dimethyl sulfoxide (DMSO, Sigma-Aldrich, St. Louis, MO, cat. D2650) at 800-fold the tested concentration and stored at -70 degrees C prior to their use. All drugs and investigational agents were tested over a range starting from a high concentration at or near the clinical Cmax and decreasing in half-log increments. If the clinical Cmax for an agent had not been determined, the highest concentration tested was 10 microM.
Cell Culture. All cells were maintained in an incubator at 37 degrees C and 5% CO2 with 95% humidity. The PDC lines were cultured according to standard operating procedures established by the NCI PDMR (https://pdmr.cancer.gov/sops/default.htm). All PDCs were thawed and cultured in Matrigel-coated flasks prepared with a working solution of 1X Ham's F-12 nutrient mix, without supplementation (Invitrogen, Waltham, MA, cat. 11765054), 100 U/mL penicillin-streptomycin (Invitrogen, cat. 15140122), and 2.5% Matrigel (Corning Inc., Corning, NY, cat. 354248) for the first three passages. The 354836-022-R-J1-PDC, 475296-252-R-J1-PDC, and 997726-040-R-J2-PDC lines were cultured in 6A media, which includes advanced DMEM/F-12 (Thermo Fisher Scientific, cat. 12634028), 10 mM HEPES (Thermo Fisher Scientific, cat. 15630080), 1X GlutaMAX supplement (Thermo Fisher Scientific, cat. 35050061), 0.1 mg/mL primocin (InvivoGen, San Diego, CA, cat. ant-pm-2), 10% defined fetal bovine serum, heat inactivated (HyClone Laboratories Inc., Logan, UT, cat. SH30070.03HI), 50% L-WRN conditioned media (ATCC, cat. CRL-3276), 1.25 mM N-Acetyl-L-cysteine (Sigma-Aldrich, cat. A9165), 10 mM nicotinamide (Sigma-Aldrich, cat. N0636), 1X B-27 supplement (Thermo Fisher Scientific, cat. 17504044), 1X N-2 supplement (Thermo Fisher Scientific, cat. 17502048), and 10 microM Y-27632 dihydrochloride (Tocris Bioscience, Bristol, United Kingdom, cat. 1254). The 624824-186-R-J2-PDC line was cultured in 6C/Colon 1B media, which includes all 6A media components plus 50 ng/mL human EGF recombinant protein (Thermo Fisher Scientific, cat. PHG0311). […]

[1] = second compound 0.00316 µM, first compound 0.0316 µM
[2] = second compound 0.00316 µM, first compound 0.1 µM
[3] = second compound 0.01 µM, first compound 0.0316 µM
[4] = second compound 0.01 µM, first compound 0.1 µM
[5] = second compound 0.0316 µM, first compound 0.0316 µM
[6] = second compound 0.0316 µM, first compound 0.1 µM
[7] = second compound 0.1 µM, first compound 0.0316 µM
[8] = second compound 0.1 µM, first compound 0.1 µM
[9] = second compound 0.316 µM, first compound 0.0316 µM
[10] = second compound 0.316 µM, first compound 0.1 µM
[11] = second compound 1 µM, first compound 0.0316 µM
[12] = second compound 1 µM, first compound 0.1 µM
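Note: agents incubated with spheroids for one week before read-out.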
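Throughout, for viability, T/C: 100% = DMSO vehicle-treated control wells.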

Question: `CC(=O)c1c(C)c2cnc(Nc3ccc(N4CCNCC4)cn3)nc2n(C2CCCC2)c1=O` + CC(Nc1ccc2c(c1)OCCn1cc(N3C(=O)OCC3C(F)F)nc1-2)C(N)=O was tested. Which pIC50 (second compound 0.00316 µM) did it give?
Answer: The pIC50 was < 7.00.

Question: And the pIC50 (second compound 0.01 µM)?
Answer: Its pIC50 is < 7.00.

Question: And the pIC50 (second compound 0.0316 µM)?
Answer: Its pIC50 is < 7.00.

Question: What about the pIC50 (second compound 0.1 µM) of the same compound?
Answer: The pIC50 was 7.12.

Question: What about the pIC50 (second compound 0.316 µM) of the same compound?
Answer: The pIC50 was 7.97.

Question: What about the pIC50 (second compound 1 µM) of the same compound?
Answer: The pIC50 was > 9.50.

Question: What about the viability, T/C (second compound 0.00316 µM, first compound 0.000316 µM) of the same compound?
Answer: Its viability, T/C is 110%.

Question: And the viability, T/C (second compound 0.00316 µM, first compound 0.001 µM)?
Answer: The viability, T/C was 88.9%.

Question: What about the viability, T/C (second compound 0.00316 µM, first compound 0.00316 µM) of the same compound?
Answer: Its viability, T/C is 109%.

Question: What about the viability, T/C (second compound 0.00316 µM, first compound 0.01 µM) of the same compound?
Answer: Its viability, T/C is 84.1%.

Question: And the viability, T/C [1]?
Answer: The viability, T/C was 97.6%.

Question: And the viability, T/C [2]?
Answer: Its viability, T/C is 74.2%.

Question: And the viability, T/C (second compound 0.01 µM, first compound 0.000316 µM)?
Answer: The viability, T/C was 99%.

Question: What about the viability, T/C (second compound 0.01 µM, first compound 0.001 µM) of the same compound?
Answer: The viability, T/C was 87%.

Question: And the viability, T/C (second compound 0.01 µM, first compound 0.00316 µM)?
Answer: Its viability, T/C is 98.3%.

Question: And the viability, T/C (second compound 0.01 µM, first compound 0.01 µM)?
Answer: The viability, T/C was 86%.

Question: What about the viability, T/C [3] of the same compound?
Answer: The viability, T/C was 98%.

Question: And the viability, T/C [4]?
Answer: Its viability, T/C is 75.8%.

Question: And the viability, T/C (second compound 0.0316 µM, first compound 0.000316 µM)?
Answer: The viability, T/C was 84.1%.

Question: What about the viability, T/C (second compound 0.0316 µM, first compound 0.001 µM) of the same compound?
Answer: Its viability, T/C is 84%.

Question: What about the viability, T/C (second compound 0.0316 µM, first compound 0.00316 µM) of the same compound?
Answer: Its viability, T/C is 86.3%.

Question: What about the viability, T/C (second compound 0.0316 µM, first compound 0.01 µM) of the same compound?
Answer: The viability, T/C was 85.1%.

Question: And the viability, T/C [5]?
Answer: The viability, T/C was 83.5%.

Question: What about the viability, T/C [6] of the same compound?
Answer: The viability, T/C was 60.8%.

Question: And the viability, T/C (second compound 0.1 µM, first compound 0.000316 µM)?
Answer: Its viability, T/C is 72.1%.

Question: And the viability, T/C (second compound 0.1 µM, first compound 0.001 µM)?
Answer: The viability, T/C was 78.4%.

Question: And the viability, T/C (second compound 0.1 µM, first compound 0.00316 µM)?
Answer: Its viability, T/C is 62.1%.

Question: And the viability, T/C (second compound 0.1 µM, first compound 0.01 µM)?
Answer: The viability, T/C was 73.7%.

Question: What about the viability, T/C [7] of the same compound?
Answer: Its viability, T/C is 72%.

Question: And the viability, T/C [8]?
Answer: The viability, T/C was 43.2%.

Question: What about the viability, T/C (second compound 0.316 µM, first compound 0.000316 µM) of the same compound?
Answer: The viability, T/C was 54.2%.

Question: And the viability, T/C (second compound 0.316 µM, first compound 0.001 µM)?
Answer: Its viability, T/C is 51.3%.

Question: And the viability, T/C (second compound 0.316 µM, first compound 0.00316 µM)?
Answer: The viability, T/C was 57.4%.

Question: And the viability, T/C (second compound 0.316 µM, first compound 0.01 µM)?
Answer: Its viability, T/C is 47.9%.

Question: And the viability, T/C [9]?
Answer: Its viability, T/C is 44.4%.

Question: What about the viability, T/C [10] of the same compound?
Answer: Its viability, T/C is 29.9%.

Question: What about the viability, T/C (second compound 1 µM, first compound 0.000316 µM) of the same compound?
Answer: Its viability, T/C is 37%.

Question: What about the viability, T/C (second compound 1 µM, first compound 0.001 µM) of the same compound?
Answer: Its viability, T/C is 36%.

Question: What about the viability, T/C (second compound 1 µM, first compound 0.00316 µM) of the same compound?
Answer: Its viability, T/C is 31.9%.

Question: What about the viability, T/C (second compound 1 µM, first compound 0.01 µM) of the same compound?
Answer: The viability, T/C was 30.6%.

Question: And the viability, T/C [11]?
Answer: Its viability, T/C is 31.2%.

Question: And the viability, T/C [12]?
Answer: Its viability, T/C is 15.4%.

Question: Which results are given for `CCCS(=O)(=O)Nc1ccc(F)c(C(=O)c2c[nH]c3ncc(-c4ccc(Cl)cc4)cc23)c1F` + CC(Nc1ccc2c(c1)OCCn1cc(N3C(=O)OCC3C(F)F)nc1-2)C(N)=O?
Answer: pIC50 (second compound 0.00316 µM): 5.48; pIC50 (second compound 0.01 µM): 5.34; pIC50 (second compound 0.0316 µM): 5.34; pIC50 (second compound 0.1 µM): 5.45; pIC50 (second compound 0.316 µM): 6.01; pIC50 (second compound 1 µM): > 7.50; viability, T/C [1]: 110%; viability, T/C [2]: 89.8%; viability, T/C (second compound 0.00316 µM, first compound 0.316 µM): 104%; viability, T/C (second compound 0.00316 µM, first compound 1 µM): 76.1%; viability, T/C (second compound 0.00316 µM, first compound 3.16 µM): 52.6%; viability, T/C (second compound 0.00316 µM, first compound 10 µM): 0.17%; viability, T/C [3]: 99.2%; viability, T/C [4]: 85.2%; viability, T/C (second compound 0.01 µM, first compound 0.316 µM): 91.8%; viability, T/C (second compound 0.01 µM, first compound 1 µM): 78.5%; viability, T/C (second compound 0.01 µM, first compound 3.16 µM): 75.8%; viability, T/C (second compound 0.01 µM, first compound 10 µM): 0.24%; viability, T/C [5]: 92%; viability, T/C [6]: 79.9%; viability, T/C (second compound 0.0316 µM, first compound 0.316 µM): 98.7%; viability, T/C (second compound 0.0316 µM, first compound 1 µM): 87.8%; viability, T/C (second compound 0.0316 µM, first compound 3.16 µM): 72.5%; viability, T/C (second compound 0.0316 µM, first compound 10 µM): 0.18%; viability, T/C [7]: 77.2%; viability, T/C [8]: 82%; viability, T/C (second compound 0.1 µM, first compound 0.316 µM): 74.4%; viability, T/C (second compound 0.1 µM, first compound 1 µM): 72%; viability, T/C (second compound 0.1 µM, first compound 3.16 µM): 56.7%; viability, T/C (second compound 0.1 µM, first compound 10 µM): 0.28%; viability, T/C [9]: 58.9%; viability, T/C [10]: 53.3%; viability, T/C (second compound 0.316 µM, first compound 0.316 µM): 54.9%; viability, T/C (second compound 0.316 µM, first compound 1 µM): 48.9%; viability, T/C (second compound 0.316 µM, first compound 3.16 µM): 37.1%; viability, T/C (second compound 0.316 µM, first compound 10 µM): 0.2%; viability, T/C [11]: 36.7%; viability, T/C [12]: 36.5%; viability, T/C (second compound 1 µM, first compound 0.316 µM): 34.2%; viability, T/C (second compound 1 µM, first compound 1 µM): 34.8%; viability, T/C (second compound 1 µM, first compound 3.16 µM): 24.1%; viability, T/C (second compound 1 µM, first compound 10 µM): 0.31%
